Positions count from the first letter of the chain named. The source made the active and inactive calls. No cut-off for these calls is given here.
How the values were obtained:
[1] = target: T1, Ecdysone receptor (Bombyx mori) (UniProt P49881); test: (§1) Activation of Bombyx mori Ecdysone receptor (amino acids 272-606) expressed in HEK293 cells transfected with cytomegalovirus promoter-driven expression construct encoding chimeric transactivator composed of DBD and homodimerization domains of yeast Gal4 (amino acids 1-146) and VP16 activation domain (amino acids (413-456) at 10 uM exposed for 16 hrs by Gal4 dependent luciferase reportre gene assay relative to untreated control; format: cell-based
T1 sequence (whole entry): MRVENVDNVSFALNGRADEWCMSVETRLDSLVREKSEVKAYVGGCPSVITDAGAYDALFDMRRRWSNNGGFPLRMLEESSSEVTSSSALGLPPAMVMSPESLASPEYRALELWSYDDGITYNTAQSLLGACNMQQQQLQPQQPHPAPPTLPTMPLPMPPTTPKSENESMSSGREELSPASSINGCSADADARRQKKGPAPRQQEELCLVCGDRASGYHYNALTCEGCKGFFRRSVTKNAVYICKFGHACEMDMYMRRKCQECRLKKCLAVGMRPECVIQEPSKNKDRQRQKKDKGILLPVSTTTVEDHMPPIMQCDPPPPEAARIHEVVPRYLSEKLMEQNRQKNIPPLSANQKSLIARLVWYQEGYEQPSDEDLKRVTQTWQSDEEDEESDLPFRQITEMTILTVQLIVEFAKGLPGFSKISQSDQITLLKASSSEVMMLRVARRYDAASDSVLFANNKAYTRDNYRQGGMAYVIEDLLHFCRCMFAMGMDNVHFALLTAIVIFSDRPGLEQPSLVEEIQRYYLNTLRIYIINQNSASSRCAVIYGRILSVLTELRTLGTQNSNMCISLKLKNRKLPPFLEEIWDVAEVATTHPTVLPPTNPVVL

[2] = target: T1, Ecdysone receptor (Bombyx mori); test: as §1, with “(468-490)” for “(413-456)”; format: cell-based
[3] = system: Danio rerio; test: Toxicity in zebrafish AB embryos assessed as induction of patterning deffects at 10 uM dosed every 24 hrs measured 72 hrs post fertilization; format: organism-based; conditions: in vivo
[4] = target: T1, Ecdysone receptor (Bombyx mori); test: as §1, with “(413-476)” for “(413-456)”; format: cell-based
[5] = target: T1, Ecdysone receptor (Bombyx mori); test: as §1, with “(413-468)” for “(413-456)”; format: cell-based
[6] = target: T1, Ecdysone receptor (Bombyx mori); test: as §1, with “(456-490)” for “(413-456)”; format: cell-based
[7] = target: T1, Ecdysone receptor (Bombyx mori); test: as §1, with “(413-490)” for “(413-456)”; format: cell-based
[8] = system: T2, Ecdysone receptor (Bombyx mori), P49881 [V454I,Y474E]; test: (§2) Induction of nuclear translocation of Bombyx mori Ecdysone receptor V454I and Y474E mutant (amino acids 272-606) expressed in AB zebrafish embryos transfected with cytomegalovirus promoter-driven expression construct encoding chimeric transactivator composed of DBD and homodimerization domains of yeast Gal4 (amino acids 1-146) and VP16 activation domain (amino acids (468-490) at 1 uM exposed for 30 mins at 4 hrs post fertilization by Gal4 dependent luciferase reportre gene assay relative to untreated control
T2 sequence (whole entry): T1 sequence (whole entry) with V454I, Y474E

[9] = target: T1, Ecdysone receptor (Bombyx mori); test: as §1, with “AB zebrafish embryos” for “HEK293 cells”, “(413-476)” for “(413-456)”
[10] = system: T2, Ecdysone receptor (Bombyx mori), P49881 [V454I,Y474E]; test: as §2, with “Activation of” for “Induction of nuclear translocation of”, “acids 272-606)-mediated mylz2 gene expression” for “acids 272-606)”, “(468-490) assessed as mylz2-promoter driven fats skeletal muscle specific GFP expression” for “(468-490)”, “at 10” for “at 1”, “exposed during 3 to 48” for “exposed for 30 mins at 4”
[11] = target: T1, Ecdysone receptor (Bombyx mori); test: as §1, with “AB zebrafish embryos” for “HEK293 cells”, “([…])” for “(413-456)”
[12] = system: T2, Ecdysone receptor (Bombyx mori), P49881 [V454I,Y474E]; test: as §1, with “receptor V454I and Y474E mutant” for “receptor”, “AB zebrafish embryos” for “HEK293 cells”, “(456-490)” for “(413-456)”
[13] = system: T2, Ecdysone receptor (Bombyx mori), P49881 [V454I,Y474E]; test: as §1, with “receptor V454I and Y474E mutant” for “receptor”, “AB zebrafish embryos” for “HEK293 cells”, “(468-490)” for “(413-456)”
[14] = system: T2, Ecdysone receptor (Bombyx mori), P49881 [V454I,Y474E]; test: as §2, with “Activation of” for “Induction of nuclear translocation of”, “acids 272-606)-mediated myl7 gene expression” for “acids 272-606)”, “(468-490) assessed as myl7-promoter driven heart specific GFP expression” for “(468-490)”, “at 10” for “at 1”, “exposed during 3 to 48” for “exposed for 30 mins at 4”
[15] = target: T1, Ecdysone receptor (Bombyx mori); test: as §1, with “AB zebrafish embryos” for “HEK293 cells”, “(413-468)” for “(413-456)”
[16] = target: T1, Ecdysone receptor (Bombyx mori); test: as §1, with “AB zebrafish embryos” for “HEK293 cells”, “(468-490)” for “(413-456)”
[17] = target: T1, Ecdysone receptor (Bombyx mori); test: as §1, with “AB zebrafish embryos” for “HEK293 cells”, “(413-490)” for “(413-456)”
[18] = system: T2, Ecdysone receptor (Bombyx mori), P49881 [V454I,Y474E]; test: as §2, with “Activation of” for “Induction of nuclear translocation of”, “at 50” for “at 1”, “for 2 to 6 hrs” for “for 30 mins”
[19] = target: T1, Ecdysone receptor (Bombyx mori); test: as §1, with “AB zebrafish embryos” for “HEK293 cells”
[20] = species: Danio rerio; test: Toxicity in zebrafish AB embryos assessed as induction of patterning deffects at 10 uM single dose measured 72 hrs post fertilization; format: organism-based; conditions: in vivo

SMILES | fold change (FC) [1] | fold change (FC) [2] | Activity [3] | fold change (FC) [4] | fold change (FC) [5] | fold change (FC) [6] | fold change (FC) [7] | Activity [8] | fold change (FC) [9] | Activity [10] | fold change (FC) [11] | fold change (FC) [12] | fold change (FC) [13] | Activity [14] | fold change (FC) [15] | fold change (FC) [16] | fold change (FC) [17] | Activity [18] | fold change (FC) [19] | Activity [20]
CC(C)CC[C@@H](O)[C@](C)(O)[C@H]1CC[C@@]2(O)C3=CC(=O)[C@@H]4C[C@@H](O)[C@@H](O)C[C@]4(C)[C@H]3CC[C@]12C [PONASTERONE A] | 26.1 | 19.5 | Non-toxic | 18.7 | 44 | 55.5 | 6.05 |  |  |  |  |  |  |  |  |  |  |  |  | 
Cc1cc(C)cc(C(=O)N(NC(=O)c2ccc3c(c2C)OCCO3)C(C)(C)C)c1 |  |  | Non-toxic |  |  |  |  |  |  |  |  |  |  |  |  |  |  |  |  | 
COc1cccc(C(=O)NN(C(=O)c2cc(C)cc(C)c2)C(C)(C)C)c1C [METHOXYFENOZIDE] |  |  | Non-toxic |  |  |  |  |  |  |  |  |  |  |  |  |  |  |  |  | 
CCc1ccc(C(=O)NN(C(=O)c2cc(C)cc(C)c2)C(C)(C)C)cc1 [TEBUFENOZIDE] | 139 | 880 | Non-toxic | 57 | 114 | 1420 | 14.5 | Active | 1.73 | 69% | 42.2 | 212 | 1070 | 44% | 5.05 | 113 | 0.8 | Active | 1.13 | Non-toxic

Reference: ChEMBL document CHEMBL1240322, “Small-molecule regulation of zebrafish gene expression” (Nat Chem Biol, 2007)
